The assay relates to mice. Nature of the assay: In vivo delivery of FLuc-mRNA lipid nanoparticles in mice, in vivo imaging (IVIS). As to conditions: for % of organ targeting / IVIS: Fluc-mRNA LNP; for organ targeting specificity (spleen or lung), in words: Table 3, Fluc-mRNA, various formulations. The procedure: After the preparation was completed, the preparation was injected intramuscularly (mice rectus femoris muscle of the thigh), intravenously (mice tail vein), or intraperitoneal injection or subcutaneous injection (subcutaneous on the back), with approximately 75 μL per mouse, for a total of 3 mice. After a certain time of injection, in vivo imaging (PerkinElmer, IVIS Lumina III) was performed. 10-15 minutes before imaging, 200 μL of 15 mg/mL D-Luciferin working solution was injected intraperitoneally, and the imaging analysis was performed using an in vivo imager.

The mark [1] stands for this setting: route IM, organ: liver, formulation, molar ratio and N/P as in the table.
Where [2] appears, read: route IM, organ: lung, formulation, molar ratio and N/P as in the table.
Where [3] appears, read: route IM, organ: muscle, formulation, molar ratio and N/P as in the table.
Where [4] appears, read: route IM, organ: spleen, formulation, molar ratio and N/P as in the table.
[5] abbreviates: route IV, organ: body, formulation, molar ratio and N/P as in the table.
[6] abbreviates: route IV, organ: liver, formulation, molar ratio and N/P as in the table.
[7] abbreviates: route IV, organ: lung, formulation, molar ratio and N/P as in the table.
Where [8] appears, read: route IV, organ: spleen, formulation, molar ratio and N/P as in the table.
Where [9] appears, read: route IM, organ not given, formulation, molar ratio and N/P as in the table.
Where [10] appears, read: route IV, organ not given, formulation, molar ratio and N/P as in the table.

Structures are written as SMILES.

As to `CCCCCCCC(CCCCCCC)OC(=O)CCCNC(=O)C(O)CN(CCCN(C)CCCN(CC(O)C(=O)NCCCC(=O)OC(CCCCCCC)CCCCCCC)CC(O)C(=O)NCCCC(=O)OC(CCCCCCC)CCCCCCC)CC(O)C(=O)NCCCC(=O)OC(CCCCCCC)CCCCCCC` (stereo not drawn) [Compound L0382], the “% of organ targeting” value runs as follows: under setting [1], 35.27%; under setting [2], 7.39%; under setting [4], 57.34%; under setting [6], 67.69%; under setting [7], 9.82%; under setting [8], 22.49%. For the same molecule, the IVIS is, setting by setting: under setting [1], 5.75E+04; under setting [2], 1.20E+04; under setting [3], 4.83E+07; under setting [4], 9.34E+04; under setting [5], 1.60E+09; under setting [6], 3.25E+08. Besides, the IVIS worked out at 4.72E+07 under setting [7] and 1.08E+08 under setting [8].

Consider `CCCCCCC(CCCCCC)C(=O)NCCNC(=O)C(O)CN(CCCN(CC(O)C(=O)NCCNC(=O)C(CCCCCC)CCCCCC)CC(O)C(=O)NCCNC(=O)C(CCCCCC)CCCCCC)CCCN(CC(O)C(=O)NCCNC(=O)C(CCCCCC)CCCCCC)CC(O)C(=O)NCCNC(=O)C(CCCCCC)CCCCCC` (stereo not drawn) [Compound L0381], for which the IVIS runs as follows: under setting [9], 1.90E+07; under setting [5], 1.57E+08; under setting [6], 8.07E+07; under setting [7], 4.31E+05; under setting [8], 1.22E+07. The “% of organ targeting” value by setting is: under setting [6], 86.51%; under setting [7], 0.46%; under setting [8], 13.03%.

Regarding `CCCCCCCC(CCCCCCC)OC(=O)CCCNC(=O)C(O)CN(CCCN(CC(O)C(=O)NCCCC(=O)OC(CCCCCCC)CCCCCCC)CC(O)C(=O)NCCCC(=O)OC(CCCCCCC)CCCCCCC)CCCN(CC(O)C(=O)NCCCC(=O)OC(CCCCCCC)CCCCCCC)CC(O)C(=O)NCCCC(=O)OC(CCCCCCC)CCCCCCC` (stereo not drawn) [Compound L0384], the “organ targeting specificity (spleen or lung), in words” value is “strong targeting specificity to deliver to spleen”. Besides, under setting [1], the “% of organ targeting” value worked out at 29.97% and the IVIS amounted to 2.35E+05. For the same molecule, under setting [2], the “% of organ targeting” value was 13.02% and the IVIS is 1.02E+05. For the same molecule, under setting [3], the IVIS is given as 2.75E+07. Further, under setting [4], the “% of organ targeting” value turned out to be 57.01% and the IVIS is listed as 4.47E+05. The IVIS under setting [5] turned out to be 4.54E+08. Besides, under setting [6], the “% of organ targeting” value was determined as 54.57% and the IVIS is listed as 1.50E+08. Further, under setting [7], the “% of organ targeting” value came to 0.39% and the IVIS stood at 1.09E+06. Also, under setting [8], the “% of organ targeting” value is listed as 45.03% and the IVIS is 1.24E+08.

For the molecule `CCCCCCCCCCN(C)C(=O)C(O)CN(CCCN(CC(O)C(=O)N(C)CCCCCCCCCC)CC(O)C(=O)N(C)CCCCCCCCCC)CCCN(CC(O)C(=O)N(C)CCCCCCCCCC)CC(O)C(=O)N(C)CCCCCCCCCC` (stereo not drawn) [Compound L0353], the IVIS was 1.68E+07 under setting [9]; 1.21E+08 under setting [5]; 3.54E+07 under setting [6]; 3.33E+06 under setting [7]; 7.33E+07 under setting [8]. The “% of organ targeting” value is 31.60% under setting [6], 2.97% under setting [7] and 65.43% under setting [8].

With `CCCCCCCCCCCCCCN(C)C(=O)C(O)CN(CCN(C)CCN(CC(O)C(=O)N(C)CCCCCCCCCCCCCC)CC(O)C(=O)N(C)CCCCCCCCCCCCCC)CC(O)C(=O)N(C)CCCCCCCCCCCCCC` (stereo not drawn) [Compound L0356], the IVIS is, setting by setting: under setting [9], 1.62E+05; under setting [5], 2.19E+06; under setting [6], 1.12E+05; under setting [7], 1.18E+06; under setting [8], 2.63E+05. Besides, the “% of organ targeting” value is, setting by setting: under setting [6], 7.17%; under setting [7], 75.97%; under setting [8], 16.86%.

With `CCCCCCCCC(CCCCCC)C(=O)NCCOC(=O)C(O)CN(CCCN(C)CCCN(CC(O)C(=O)OCCNC(=O)C(CCCCCC)CCCCCCCC)CC(O)C(=O)OCCNC(=O)C(CCCCCC)CCCCCCCC)CC(O)C(=O)OCCNC(=O)C(CCCCCC)CCCCCCCC` (stereo not drawn) [Compound L0373], the IVIS by setting is: under setting [9], 8.38E+06; under setting [5], 7.79E+07; under setting [6], 9.41E+06; under setting [7], 1.10E+07; under setting [8], 6.08E+07. Further, the “% of organ targeting” value is 11.58% under setting [6], 13.53% under setting [7] and 74.89% under setting [8].

As for `CCCCCCCCCCOC(=O)CCCNC(=O)C(O)CN(CCCN(C)CCCN(CC(O)C(=O)NCCCC(=O)OCCCCCCCCCC)CC(O)C(=O)NCCCC(=O)OCCCCCCCCCC)CC(O)C(=O)NCCCC(=O)OCCCCCCCCCC` (stereo not drawn) [Compound L0385], the “organ targeting specificity (spleen or lung), in words” value is “more selective towards the lung”. In addition, the IVIS under setting [9] worked out at 1.14E+06. Besides, the IVIS under setting [5] is listed as 8.17E+07. In addition, under setting [6], the “% of organ targeting” value turned out to be 0.90% and the IVIS came out at 2.51E+06. Moreover, under setting [7], the “% of organ targeting” value amounted to 98.40% and the IVIS turned out to be 2.74E+08. For the same molecule, under setting [8], the “% of organ targeting” value is reported as 0.70% and the IVIS is 1.94E+06.

`CCCCCCCCCCCCNC(=O)C(O)CN(CCCN(C)CCN(C)CCCN(CC(O)C(=O)NCCCCCCCCCCCC)CC(O)C(=O)NCCCCCCCCCCCC)CC(O)C(=O)NCCCCCCCCCCCC` (stereo not drawn) [Compound L0366]: under setting [9], the IVIS was determined as 4.56E+05.

As to `CCCCCCCCC(CCCCCC)C(=O)OCCCCCCNC(=O)C(O)CN(CCCN(CC(O)C(=O)NCCCCCCOC(=O)C(CCCCCC)CCCCCCCC)CC(O)C(=O)NCCCCCCOC(=O)C(CCCCCC)CCCCCCCC)CCCN(CC(O)C(=O)NCCCCCCOC(=O)C(CCCCCC)CCCCCCCC)CC(O)C(=O)NCCCCCCOC(=O)C(CCCCCC)CCCCCCCC` (stereo not drawn) [Compound L0372], the IVIS reads like this: under setting [9], 7.60E+06; under setting [10], 4.83E+08.

In the case of `CCCCCCCCCCN(C)C(=O)C(O)CN(CCN(C)CCN(CC(O)C(=O)N(C)CCCCCCCCCC)CC(O)C(=O)N(C)CCCCCCCCCC)CC(O)C(=O)N(C)CCCCCCCCCC` (stereo not drawn) [Compound L0349], the IVIS under setting [9] is reported as 8.25E+04 and the IVIS under setting [10] amounted to 5.98E+05.

Consider `CCCCCCC(CCCCC)C(=O)OCCCCNC(=O)C(O)CN(CCCN(C)CCCCN(CCC(O)C(=O)NCCOC(=O)C(CCCCCC)CCCCCC)C(O)C(=O)NCCCCOC(=O)C(CCCCCC)CCCCCC)CC(O)C(=O)NCCCCOC(=O)C(CCCCC)CCCCCC` (stereo not drawn) [Compound L0367], for which the IVIS by setting is: (route IH, organ: body, DSPE-PEG5000:DSPC:Chol:compound 1.40:11.15:38.95:48.50, N/P 30) 1.65E+07; (route IH, organ: spleen, DSPE-PEG5000:DSPC:Chol:compound 1.40:11.15:38.95:48.50, N/P 30) 8.20E+03; under setting [9], 3.40E+07; under setting [5], 4.05E+07; under setting [6], 3.83E+06; under setting [7], 4.47E+07. Also, under setting [8], the IVIS came to 3.69E+07. The “% of organ targeting” value reads like this: under setting [6], 3.91%; under setting [7], 45.55%; under setting [8], 37.59%.

With `CCCCCCCCCCCCCCN(C)C(=O)C(O)CN(CCCN(C)CCCN(CC(O)C(=O)N(C)CCCCCCCCCCCCCC)CC(O)C(=O)N(C)CCCCCCCCCCCCCC)CC(O)C(=O)N(C)CCCCCCCCCCCCCC` (stereo not drawn) [Compound L0355], the IVIS is reported as 2.41E+06 under setting [9]; 9.52E+06 under setting [5]; 2.63E+05 under setting [6]; 1.34E+07 under setting [7]; 2.13E+06 under setting [8]. Also, the “% of organ targeting” value under setting [6] was determined as 1.66%, the “% of organ targeting” value under setting [7] was found to be 84.86% and the “% of organ targeting” value under setting [8] is recorded as 13.48%.
